“Also recorded” adds a separate entry of the source.
Test system: virus
Test: Virus inactivation by detergent component versus nanoemulsion
Type: cell-based
Conditions: at concentrations equivalent to 11% X8P (BCTP)
Description: The nanoemulsions structure of the certain embodiments of the emulsions of the present invention may play a role in their biocidal activity as well as contributing to the non-toxicity of these emulsions. […] Adding the oil phase to the detergent and solvent markedly reduces the toxicity of these agents in tissue culture at the same concentrations. […] It should be noted that when all the components of X8P are combined in one composition but are not in a nanoemulsion structure, the mixture is not as effective as an antimicrobial as when the components are in a nanoemulsion structure.
Individual components of nanoemulsions (e.g. in an immunogenic composition of the present invention) can function both to inactivate a pathogen as well as to contribute to the non-toxicity of the emulsions. […] Adding the oil phase to the detergent and solvent markedly reduces the toxicity of these agents in tissue culture at the same concentrations. […] Furthermore, when all the components of BCTP are combined in one composition but are not in a nanoemulsion structure, the mixture is not as effective at inactivating a pathogen as when the components are in a nanoemulsion structure.

TRITON X-100 [TRITON-X100]
biocidal activity against virus (ability to inactivate a virus): less biocidal activity; also recorded: less ability to inactivate a virus

Source: patent US20100316673A1, “NA[…]” (priority 2009, published 2010)
